Reference: patent publication US20220016048A1, “CANNABIDIOL-TYPE CANNABINOID COMPOUND” (GW Research Limited, priority 2018, published 2022)

What was measured:
[1] = Toxicokinetic evaluation in embryo-foetal development study; format: in vivo, rat
Procedure: Three groups of 20 time-mated female Wistar (Han) rats were given CBD-C4 once daily by the oral (gavage) route from Day 6 to Day 17 of gestation at dose levels of 1, 10 or 100 mg/kg/day (at a constant dose volume of 5 mL/kg), to cover the period of organogenesis.
Blood samples were taken for toxicokinetic evaluation at pre-dose, 1, 2, 4, 6 and 24 hours after dosing on Days 6 and 17 of gestation. Clinical observations, body weight and food consumption were recorded. On Day 21 of gestation (GD 21) the females were euthanised, and the progress and outcome of pregnancy was evaluated.

[2] = system: sub-chronic PCP-induced deficit in social behaviour in female Lister-Hooded rats; experiment: social interaction test in sub-chronic PCP treated rats; format: in vivo, rat
Procedure: The aim of the current study was to investigate the ability of CBD-C4 (3, 10 & 30 mg/kg IP; 60 min pre-treatment (ptt)) in comparison with risperidone (an atypical antipsychotic; 0.1 mg/kg IP; 60 min pre-treatment), to antagonise a sub-chronic PCP (scPCP; 2 mg/kg IP; twice daily for 7-days; 7 day wash out)-induced deficit in social behaviour in female Lister-Hooded rats.
180 female Lister Hooded rats were used for this experiment, of which 90 were used for the drug study and 90 weight-matched untreated conspecifics were used as the companion rat, and their behaviour was not scored.
Rats were housed in groups of 5 under standard laboratory conditions under a 12-hr light: dark cycle, lights on at 0700 hr. Testing was carried out in the light phase. These studies were carried out in accordance with the Animals Scientific Procedures Act (UK, 1986).
CBD-C4 was used at doses of (3, 10, 30 mg/kg, i.p.) and risperidone was used at a dose of 0.1 mg/kg, i.p.
Rats were randomly assigned to two treatment groups and treated with vehicle, n=15 (distilled water, i.p.) or PCP, n=75 (2 mg/kg, i.p. twice daily for 7-days). This was followed by a 7-day wash out period before the rats were tested following acute treatment with CBD-C4, risperidone or vehicle.
Risperidone (0.1 mg/kg) was dissolved in a minimum volume of acetic acid, made up to volume with distilled water and pH adjusted to 6 with 0.1M NaOH and administered via the i.p. route in a volume of 1 ml/kg, 60 min prior to testing.
CBD-C4 (3, 10 & 30 mg/kg) was dissolved in 2:1:17 (Ethanol:Cremophor EL:Saline 0.9%). CBD-C4 was administered via the i.p. route in a volume of 5 ml/kg, 60 min prior to testing.
The social interaction test was performed in an open-field comprising a square box made of Plexiglas (52×52×31 cm) placed 27 cm above the floor on a moveable trolley. The floor of the box was white with black gridlines forming 9 identical squares on it. All other walls were black. A video camera connected to a video recorder and monitor was positioned above the box. The object used for the test consists of a heavy structure made of metal that cannot be displaced by the animals.
After a 7 day drug-free period, the rats were habituated to the test environment and arena prior to the test day. Habituation consisted of placing all rats from one cage together in the empty test arena for one hour for three days including the day before the test day.
Pairs of rats, weight matched (15-20 g) and unfamiliar to each other, receiving either no treatment (n=90 “conspecific” rats) or different treatments (PCP; n=15 “tested” rats, Vehicle; n=15 “tested” rats, or PCP+drug; n=60 “tested” rats) were placed in the test arena together for 10 minutes and behavior assessed as described below.
An inanimate object such as an unopened drink can was also placed in the centre of the arena to measure any differences in interaction of the test animal with an unfamiliar animal as opposed to an unfamiliar object. After each 10-minute trial, the object and arena were cleaned with 10% alcohol in an attempt to remove traces of any olfactory cues. All testing was carried out under standard room illumination levels (70 cd/m^2).
Behaviour in both trials was recorded on video for subsequent blind scoring. A behavioural scoring software program (Hindsight, Scientific programming services) was used to score the following parameters:
Investigative sniffing behaviour: sniffing the conspecific's snout or parts of the body including the anogenital region.
Following: rat moves after the conspecific i.e. a vehicle treated rat of the same species, around the arena.
Avoidances: actively turning away when approached by the conspecific animal.
Investigation of object: exploration of object placed in centre of the arena.
Locomotor activity is recorded by counting the total number of sectors (i.e. lines) crossed by the test rat.
All data were assessed for normality using D'Agostino and Pearson normality test. […]

[3] = CBD-C4 3, 10, 30 mg/kg, risperidone 0.1 mg/kg i.p., data not shown

SMILES: C=C(C)[C@@H]1CCC(C)=C[C@H]1c1c(O)cc(CCCC)cc1O [CBD-C4, (1′R,2′R)-4-butyl-5′-methyl-2′-(prop-1-en-2-yl)-1′,2′,3′,4′-tetrahydro-[1,1′-biphenyl]-2,6-diol]
- extent of accumulation (exposure after 12 daily doses vs single dose) ([1]; 1 mg/kg/day): approximately 5 fold
- extent of accumulation (exposure after 12 daily doses vs single dose) ([1]; 100 mg/kg/day): ~2 fold
- time of maximum plasma concentration post dose ([1]; GD 6, 1 mg/kg/day oral): 2 h
- time of maximum plasma concentration post dose ([1]; GD 6, higher dose levels (10, 100 mg/kg/day) oral): 6 h
- time of maximum plasma concentration post dose ([1]; GD 17, after 12 daily doses, all dose levels): 4 h
- plasma levels 24 hours after dosing ([1]; both higher dose levels (10, 100 mg/kg/day)): quantifiable levels of CBD-C4 remained in plasma
- increases in exposure (Cmax and AUC(0-t)) relative to the increase in dose ([1]; both sampling occasions (GD 6, GD 17)): supra-proportional
- time to complete elimination from plasma after dosing ([1]; lowest dose level (1 mg/kg/day), both sampling occasions): ≤ 24 h
- behavioural deficits induced by scPCP ([2]; 30 mg/kg i.p.): improved all the behavioural deficits
- avoidance behaviour compared to the scPCP-treated group ([2]; 30 mg/kg i.p., 60 min pre-treatment): significantly decreased
- following behaviour compared to scPCP ([2]; 30 mg/kg i.p., 60 min pre-treatment, P<0.001): significantly increased
- sniffing behaviour compared to scPCP ([2]; 30 mg/kg i.p., 60 min pre-treatment, P<0.01): significant increase
- line crossings (locomotor activity) [2, 3]: no significant effect
- object exploration [2, 3]: no significant effect
- any of the parameters measured in the social interaction test ([2]; lower doses 3 and 10 mg/kg i.p.): no effect
